Patent publication US20240228547A1, “POLYPEPTIDE FOR RESISTING NOVEL CORONAVIRUS AND APPLICATION THEREOF” (INSTITUTE OF MICROBIOLOGY, CHINESE ACADEMY OF SCIENCES, priority 2021, published 2024)

Legend:
[1] = tested on: pseudovirus of SARS-CoV-2 variant Beta (B.1.351); settings: B.1.351 (Beta) pseudovirus; for IC50: read-out: IC50, inhibitory effect on pseudovirus, Hela hACE2 cells
[2] = tested on: pseudovirus of SARS-CoV-2 variant D614G; settings: for IC50: pseudovirus of variant D614G
[3] = tested on: pseudovirus of SARS-CoV-2 variant Gamma (P.1); settings: P.1 (Gamma) pseudovirus; for IC50: read-out: IC50, inhibitory effect on pseudovirus, Hela hACE2 cells
[4] = tested on: pseudovirus of SARS-CoV-2 variant Alpha (B.1.1.7); settings: B.1.1.7 (Alpha) pseudovirus; for IC50: read-out: IC50, inhibitory effect on pseudovirus, Hela hACE2 cells
[5] = tested on: pseudovirus of SARS-CoV-2 variant Kappa (B.1.617.1); settings: for Increase multiple (fold increase in the inhibitory effect compared to the polypeptide P3) / IC50: B.1.617.1 (Kappa) pseudovirus; for IC50: read-out: IC50, inhibitory effect on pseudovirus, Hela hACE2 cells
[6] = tested on: pseudovirus of SARS-CoV-2 variant Delta (B.1.617.2); settings: B.1.617.2 (Delta) pseudovirus; for IC50: read-out: IC50, inhibitory effect on pseudovirus, Hela hACE2 cells
[7] = tested on: SARS-COV-2 original strain and its various variants; format: cell-based

## CC[C@H](C)[C@H](NC(=O)CNC(=O)[C@H](CO)NC(=O)[C@@H](NC(=O)[C@H](CC(=O)O)NC(=O)CNC(=O)[C@H](Cc1ccccc1)NC(=O)[C@H](CCCCN)NC(=O)[C@@H](N)C(C)C)[C@@H](C)CC)C(=O)N[C@@H](CC(N)=O)C(=O)N[C@@H](C)C(=O)N[C@@H](CO)C(=O)N[C@H](C(=O)N[C@H](C(=O)N[C@@H](CC(N)=O)C(=O)N[C@H](C(=O)N[C@@H](CCCCN)C(=O)N[C@@H](CCC(=O)O)C(=O)N[C@@H](CCC(=O)O)C(=O)N[C@H](C(=O)N[C@@H](CC(=O)O)C(=O)N[C@@H](CCCNC(=N)N)C(=O)N[C@@H](CC(C)C)C(=O)N[C@@H](Cc1ccc(O)cc1)C(=O)N[C@@H](CCC(=O)O)C(=O)N[C@H](C(=O)N[C@H](C(=O)N[C@@H](CCCCN)C(=O)N[C@@H](CC(N)=O)C(=O)N[C@@H](CC(C)C)C(=O)N[C@@H](CC(N)=O)C(=O)N[C@@H](CCC(=O)O)C(=O)N[C@@H](CO)C(=O)N[C@@H](CC(C)C)C(=O)N[C@H](C(=O)N[C@@H](CC(=O)O)C(=O)N[C@@H](CC(C)C)C(=O)N[C@@H](CCC(N)=O)C(=O)N[C@@H](CCC(=O)O)C(=O)N[C@@H](CC(C)C)C(=O)O)[C@@H](C)CC)C(C)C)C(C)C)[C@@H](C)CC)[C@@H](C)CC)C(C)C)C(C)C [Polypeptide P3-3]
[1]
  Increase multiple (fold increase in the inhibitory effect compared to the polypeptide P3): 7.5
  IC50: 0.1 µM
[2]
  Increase multiple (fold increase in the inhibitory effect compared to the polypeptide P3): 5.0
  IC50: 0.16 µM
[3]
  Increase multiple (fold increase in the inhibitory effect compared to the polypeptide P3): 7.2
  IC50: 0.11 µM
[4]
  Increase multiple (fold increase in the inhibitory effect compared to the polypeptide P3): 2.1
  IC50: 0.37 µM
[5]
  Increase multiple (fold increase in the inhibitory effect compared to the polypeptide P3): 1.8
  IC50: 0.43 µM
[6]
  Increase multiple (fold increase in the inhibitory effect compared to the polypeptide P3): 2.4
  IC50: 0.32 µM
[7]
  inhibitory effect compared with the polypeptide P3 (in words): most obviously improved

## CC[C@H](C)[C@H](N)C(=O)N[C@@H](CO)C(=O)NCC(=O)N[C@H](C(=O)N[C@@H](CC(N)=O)C(=O)N[C@@H](C)C(=O)N[C@@H](CO)C(=O)N[C@H](C(=O)N[C@H](C(=O)N[C@@H](CC(N)=O)C(=O)N[C@H](C(=O)N[C@@H](CCCCN)C(=O)N[C@@H](CCC(=O)O)C(=O)N[C@@H](CCC(=O)O)C(=O)N[C@H](C(=O)N[C@@H](CC(=O)O)C(=O)N[C@@H](CCCNC(=N)N)C(=O)N[C@@H](CC(C)C)C(=O)N[C@@H](CC(N)=O)C(=O)N[C@@H](CCC(=O)O)C(=O)N[C@H](C(=O)N[C@@H](C)C(=O)N[C@@H](CCCCN)C(=O)N[C@@H](CC(N)=O)C(=O)N[C@@H](CC(C)C)C(=O)N[C@@H](CC(N)=O)C(=O)N[C@@H](CCC(=O)O)C(=O)N[C@@H](CO)C(=O)N[C@@H](CC(C)C)C(=O)N[C@H](C(=O)N[C@@H](CC(=O)O)C(=O)N[C@@H](CC(C)C)C(=O)N[C@@H](CCC(N)=O)C(=O)N[C@@H](CCC(=O)O)C(=O)N[C@@H](CC(C)C)C(=O)O)[C@@H](C)CC)C(C)C)[C@@H](C)CC)[C@@H](C)CC)C(C)C)C(C)C)[C@@H](C)CC [Polypeptide P3-4]
[1]
  Increase multiple (fold increase in the inhibitory effect compared to the polypeptide P3): 4.0
  IC50: 0.2 µM
[2]
  Increase multiple (fold increase in the inhibitory effect compared to the polypeptide P3): 2.6
  IC50: 0.3 µM
[3]
  Increase multiple (fold increase in the inhibitory effect compared to the polypeptide P3): 3.6
  IC50: 0.22 µM
[4]
  Increase multiple (fold increase in the inhibitory effect compared to the polypeptide P3): 1.3
  IC50: 0.59 µM
[5]
  Increase multiple (fold increase in the inhibitory effect compared to the polypeptide P3): 1.6
  IC50: 0.48 µM
[6]
  Increase multiple (fold increase in the inhibitory effect compared to the polypeptide P3): 1.4
  IC50: 0.55 µM
[7]
  inhibitory effect compared with the polypeptide P3 (in words): improved to varying degrees

## CC[C@H](C)[C@H](N)C(=O)N[C@@H](CO)C(=O)NCC(=O)N[C@H](C(=O)N[C@@H](CC(N)=O)C(=O)N[C@@H](C)C(=O)N[C@@H](CO)C(=O)N[C@H](C(=O)N[C@H](C(=O)N[C@@H](CC(N)=O)C(=O)N[C@H](C(=O)N[C@@H](CCC(N)=O)C(=O)N[C@@H](CCCCN)C(=O)N[C@@H](CCC(=O)O)C(=O)N[C@H](C(=O)N[C@@H](CC(=O)O)C(=O)N[C@@H](CCCNC(=N)N)C(=O)N[C@@H](CC(C)C)C(=O)N[C@@H](CC(N)=O)C(=O)N[C@@H](CCC(=O)O)C(=O)N[C@H](C(=O)N[C@@H](C)C(=O)N[C@@H](CCCCN)C(=O)N[C@@H](CCC(=O)O)C(=O)N[C@@H](CC(C)C)C(=O)N[C@@H](CC(N)=O)C(=O)N[C@@H](CCC(=O)O)C(=O)N[C@@H](CO)C(=O)N[C@@H](CC(C)C)C(=O)N[C@H](C(=O)N[C@@H](CC(=O)O)C(=O)N[C@@H](CC(C)C)C(=O)N[C@@H](CCC(N)=O)C(=O)N[C@@H](CCC(=O)O)C(=O)N[C@@H](CC(C)C)C(=O)O)[C@@H](C)CC)C(C)C)[C@@H](C)CC)[C@@H](C)CC)C(C)C)C(C)C)[C@@H](C)CC [Polypeptide P3-5]
[1]
  Increase multiple (fold increase in the inhibitory effect compared to the polypeptide P3): 0.6
  IC50: 1.24 µM
[2]
  Increase multiple (fold increase in the inhibitory effect compared to the polypeptide P3): 0.5
  IC50: 1.47 µM
[3]
  Increase multiple (fold increase in the inhibitory effect compared to the polypeptide P3): 1.3
  IC50: 0.63 µM
[4]
  Increase multiple (fold increase in the inhibitory effect compared to the polypeptide P3): 0.5
  IC50: 1.43 µM
[5]
  Increase multiple (fold increase in the inhibitory effect compared to the polypeptide P3): 0.7
  IC50: 1.06 µM
[5]; Kappa variant strain
  inhibitory effect on the Kappa variant strain compared with P3 (in words): slightly higher than that of P3
[6]
  Increase multiple (fold increase in the inhibitory effect compared to the polypeptide P3): 0.4
  IC50: 1.82 µM
[7]
  inhibitory effect compared with the polypeptide P3 (in words): decreased slightly
